Measured values taken from patent US6541463B1, “Inhibitors of type 5 and type 3 17β-hydroxysteroid dehydrogenase and methods for their use” (Endorecherche, Inc., priority 1998, dated 2003).
Like-named read-outs stand apart in the source and are kept apart here.

Columns and labels:
[1] = In vivo assay of oral bioavailability (plasma AUC 0-7 h by LCMS/MS); parameters: species or system male Sprague Dawley rats; conditions: for AUC(0-t): male, Sprague-Dawley [Crl:CD(SD)Br]
Protocol: In column 1, the oral bioavailability of preferred type 5 inhibitors, expressed in ng/mL.h, was determined as described below in “Other Tests, A-In Vivo Assays of Bioavailability of Human Type 5 17β-HSD Inhibitors”. Higher number are desirable. ND means that a determination was not done.
The measurements at various time intervals were for values greater than or equal to 1.0 ng/mL and less than or equal to 50 ng/mL.
Male Sprague-Dawley rats [Crl:CD(SD)Br] weighing 275-350 g were obtained from Charles-River Canada Inc. and housed 2 per cage during the acclimation period and individually during the study period. The animals were maintained under a regimen of 12 hours light: 12 hours dark (lights on at 08:00). Animals received certified Rodent feed (Lab Diet #5002, pellets) and tap water ad libitum. Rats were fasted (access to water only) starting on the evening prior to dosing.
Each compound to be tested was administered to three animals as a suspension in 0.4% methylcellulose by oral gavage at a dose of 0.5 mg/rat (1.0 ml/rat). Four to eight new compounds were tested each day and one group of animals received megestrol acetate (MGA) under the same conditions on each dosing day as a reference. […] Blood samples were immediately transferred into a refrigerated 0.75 ml Microtainer containing EDTA and kept in an ice-water bath until centrifugation at 3000 rpm for 10 minutes. Plasma separation was performed rapidly (less than 50 minutes) after blood collection. One aliquot of 0.25 ml of plasma was then transferred into a borosilicate tube (13×100) and was rapidly frozen on dry-ice. Plasma samples were kept at −80° C. until measurement of plasma concentration of the inhibitor(s) by LCMS/MS.
Aliquots of rat plasma (0.250 mL) were transferred to 13×100 mm borosilicate tubes. Water (1.0 mL) and internal standard solution (0.1 mL) were added to each sample and vortexed for 2 min. A mixture of N-butyl chloride and acetone (v:v, 7:3) (3 mL) was added to each sample and vortexed for 2 min. This step was repeated and the combined organic phases were evaporated to dryness under nitrogen in a Turbo Vap evaporator at 35° C. The residue was reconstituted with 1 mL of methanol and evaporated in a Turbo Vap evaporator at 35° C. The final extract was reconstituted into 0.1 mL of methanol/water (v:v, 75:25) and then transferred into a conical vial for injection into the mass spectrometer.
The assay procedure was performed by analyzing, in duplicate, rat plasma samples spiked at six different Type 5 inhibitor concentrations (1, 2, 5, 10, 20 and 50 ng/mL). The lower limit of quantitation (LOQ) was established at 1.0 ng/mL. Values lower than 1.0 ng/mL were expressed as below limit of quantification (BLQ). […]

[2] = target: T1, human type 5 17β-hydroxysteroid dehydrogenase (Homo sapiens, UniProt P42330); experiment: Reversibility of human type 5 17β-HSD inhibitory activity (preincubation, wash); assay type: cell-based
T1 construct: screen again a human placental λgt11 cDNA to get the full length cDNA clone; expressed in transfected cells; host or cells: human embryonal kidney 293 cells (pCMV / pCMV-neo vector)
T1 sequence (P42330 1-323): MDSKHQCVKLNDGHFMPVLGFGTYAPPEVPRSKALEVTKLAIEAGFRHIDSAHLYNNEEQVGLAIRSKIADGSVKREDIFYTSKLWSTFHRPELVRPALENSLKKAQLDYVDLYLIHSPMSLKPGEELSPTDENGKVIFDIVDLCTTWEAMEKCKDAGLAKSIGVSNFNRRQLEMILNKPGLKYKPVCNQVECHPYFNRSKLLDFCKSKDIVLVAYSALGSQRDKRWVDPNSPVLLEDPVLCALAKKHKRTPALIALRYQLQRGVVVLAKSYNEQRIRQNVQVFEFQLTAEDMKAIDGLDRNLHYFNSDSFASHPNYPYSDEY
Protocol: In column 3, the reversibility of the inhibition of type 5 17β-hydroxysteroid dehydrogenase activity expressed in percentage of control is reported. The manner in which the reversibility is determined is described in “Efficacy of Preferred Inhibitors: V. Reversibility of Human Type 5 17β-HSD Inhibitory Activity”. Lower number is desirable. Blank means that a determination was not done.
Determination of activity was performed as described (Luu-The et al., Mol. Endocrionol. 4: 268-275, 1990, Lachance et al., J. Biol. Chem. 265: 20469-20475, 1990; Luu-The et al., DNA & Cell Biol. 14: 511-518, 1995). Briefly, 0.1 μM of the indicated ^14C-labeled substrate (Dupont Inc. (Canada), namely, DHEA, 4-androstene-3,17-dione (Δ4), in absence or presence of increasing concentration of preferred inhibitor of the invention, was added to freshly changed culture medium in a 6-well culture plate. After incubation for 1 h, the steroids were extracted twice with 2 ml of ether. The organic phase were pooled and evaporated to dryness. The steroids were solubilized in 50 μl of dichloromethane, applied to Silica gel 60 thin layer chromatography (TLC) plate (Merck, Darmstad, Germany) then separated by migration in the toluene-acetone (4:1) solvent system. […] Transfection could be also performed with HeLa, SW-13, 293, COS-1 cells, the preferred cell line is 293 cells.
The reversibility assay was performed as described above for the standard type 5 17β-HSD enzymatic assay, except that before adding the ^14C-labeled substrate, the cells were preincubated with 0.3 μM of the indicated inhibitor for 1 h, (or the indicated time interval), followed by two washes with phosphate saline buffer (PBS).

[3] = 0.5 mg, Table 4′, oral, rat plasma

Compound | AUC(0-t) [1, 3] | Reversibility ((%) of control) ([2]; Table 4′) | further results
COCCOc1cc2c(cc1C#N)C1CC[C@@]3(C)C(CC[C@@]34CCC(C)(C)C(=O)O4)C1CC2 (stereo partly shown) [EM-1396] | 196 ± 53 ng·h/mL | 28 % of control | –
CC1(C)CCC2(CCC3C4CCc5cc(O)c(C#N)cc5C4CCC32C)OC1=O (stereo not shown) [EM-01645] | 52 ± 3 ng·h/mL | – | –
CC1(C)CCC2(CCC3C4CCc5cc(O)c([N+](=O)[O-])cc5C4CCC32C)OC1=O (stereo not shown) [EM-1125-CS] | 95 ± 6.5 ng·h/mL | – | –
CCC(=O)O[C@]1(C(C)=O)CCC2C3C=C(C)C4=CC(=O)C[C@H](C)[C@]4(C)C3CC[C@@]21C (stereo partly shown) [CS-243] | – | – | AUC(0-t) ([1]; rat, plasma, po, 0.5 mg): 11 ± 2.5 ng·h/mL
CN(C)CCOc1ccc2c(c1)CCC1C2CCC2(C)C1CCC21CCC(C)(C)C(=O)O1 (stereo not shown) [EM-1389-CS] | 169 ± 2 ng·h/mL | 40 % of control | –
CC(=O)O[C@]1(C(=O)N(C)C)CCC2C3C=C(C)C4=CC(=O)CC[C@]4(C)C3CC[C@@]21C (stereo partly shown) [EM-1159] | – | – | AUC(0-t) ([1]; rat, plasma, po, 0.5 mg): 452 ± 170 ng·h/mL
COC(=O)CCCC(=O)O[C@]1(C(C)=O)CC[C@H]2[C@@H]3C=C(C)C4=CC(=O)CC[C@]4(C)[C@H]3CC[C@@]21C [EM-1007, 6-Methyl-4,6-pregnadien-17α-ol-3,20-dione 4′-Carbomethoxybutyrate] | – | – | Oral Bioavailability AUC 0-7h ([1]; AUC 0-7h): 16.4 ng·h/mL
COCCOc1cc2c(cc1C(=O)O)C1CCC3(C)C(CCC34CCC(C)(C)C(=O)O4)C1CC2 [EM-1405, 2-Carboxy-3-(2″-methoxyethyloxy)-1,3,5(10)-estratrien-17(R)-spiro-2′-(5′,5′-dimethyl-6′-oxo)tetrahydropyran] | – | 53 % of control | –
COCCOc1cc2c(cc1F)C1CCC3(C)C(CCC34CCC(C)(C)C(=O)O4)C1CC2 (stereo not shown) [EM-1393-CS] | – | 38 % of control | –
COc1cc2c(cc1C)C1CCC3(C)C(CCC34CCC(C)(C)C(=O)O4)C1CC2 (stereo not shown) [EM-1412-CS] | – | 71 % of control | –
CC1(C)CC[C@@]2(CCC3C4CCc5cc(C(N)=O)ccc5C4CCC32C)OC1=O (stereo partly shown) [EM-1404] | 3840 ± 197 ng·h/mL | – | –
CC(=O)O[C@]1(C(C)=O)CCC2C3C=C(C)C4=CC(=O)CC[C@]4(C)C3CC[C@@]21C (stereo partly shown) [megestrol acetate, reference compound] | – | – | AUC(0-t) ([1]; rat, plasma, po, 0.5 mg): 92 ± 17 ng·h/mL
CC1CCC2(CCC3C4CCc5cc(O)c([N+](=O)[O-])cc5C4CCC32C)OC1=O [EM-1131, 2-Nitro-1,3,5(10)-estratrien-3-ol-17(R)-spiro-2′-(5′-methyl-6′-oxo)tetrahydropyran] | 124 ± 27 ng·h/mL | – | –
COCCOc1cc2c(cc1C(N)=O)C1CC[C@@]3(C)C(CC[C@@]34CCC(C)(C)C(=O)O4)C1CC2 (stereo partly drawn) [EM-1424, 2-Carbamoyl-3-(2″-methoxyethyloxy)-1,3,5(10)-estratrien 17(R)-spiro-2′-(5′,5′-dimethyl-6′-oxo)tetrahydropyran] | 368 ± 70 ng·h/mL | 17 % of control | –
CC1(C)CC[C@@]2(CCC3C4CCc5cc(C(=O)O)ccc5C4CC[C@@]32C)OC1=O (stereo partly drawn) [EM-1401, 3-Carboxy-1,3,5(10)-estratrien-17(R)-spiro-2′-(5′,5′-dimethyl-6′-oxo)tetrahydropyran] | 1630 ± 181 ng·h/mL | 31 % of control | –
COc1ccc(CC(=O)O[C@]2(C(C)=O)CCC3C4C=C(C)C5=CC(=O)C=C[C@]5(C)C4CC[C@@]32C)cc1 (stereo partly shown) [EM-1291] | – | – | AUC(0-t) ([1]; rat, plasma, po, 0.5 mg): 94 ± 23 ng·h/mL; Reversibility ((%) of control) [2]: 27%
COc1cc2c(cc1C(F)(F)F)C1CCC3(C)C(CCC34CCC(C)(C)C(=O)O4)C1CC2 [EM-1409, 3-Methoxy-2-trifluoromethyl-1,3,5(10)-estratrien-17(R)-spiro-2′-(5′,5′-dimethyl-6′-oxo)tetrahydropyran] | 36 ± 13 ng·h/mL | – | –

Compound | AUC(0-t) [1, 3] | Reversibility ((%) of control) ([2]; Table 4′) | further results
CCC[C@@H]1CC2C3C=CC4=CC(=O)CC[C@]4(C)C3CC[C@]2(C)C1=O (stereo partly shown) [EM-1097] | – | – | AUC(0-t) ([1]; rat, plasma, po, 0.5 mg/rat): 122 ± 5.7 ng·h/mL; Reversibility ((%) of control) [2]: 45%
CC1(C)CCC2(CCC3C4CCc5cc(OS(C)(=O)=O)ccc5C4CCC32C)OC1=O (stereo not shown) [EM-1365-CS] | – | 49 % of control | –
COCCOc1cc2c(cc1C(=O)N(C)C)C1CCC3(C)C(CCC34CCC(C)(C)C(=O)O4)C1CC2 (stereo not shown) [EM-1413-CS] | – | 37 % of control | –
C[C@]12CCC3c4cc([N+](=O)[O-])c(O)cc4CCC3C1CC[C@@]21CCCC(=O)O1 (stereo partly drawn) [EM-1124, 2-Nitro-1,3,5(10)-estraetriene-3-ol-17(R)-spiro-2′-(6′-oxo)tetrahydropyran] | – | – | AUC(0-t) ([1]; rat, plasma, po, 0.5 mg, Table 4′, cell marked (8 h)): 5.1 ± 1 ng·h/mL
COc1c(Br)cc2c(c1Br)CCC1C2CCC2(C)C1CCC21CCC(C)(C)C(=O)O1 (stereo not shown) [EM-1385-CS] | 301 ± 36 ng·h/mL | 60 % of control | –
COc1ccc2c(c1)C(=O)CC1C2CC[C@@]2(C)C1CC[C@@]21CCC(C)(C)C(=O)O1 (stereo partly shown) [EM-1394] | 1760 ± 69 ng·h/mL | 23 % of control | –
CC(C)C[C@@H]1CC2C3C=CC4=CC(=O)CC[C@]4(C)C3CC[C@]2(C)C1=O (stereo partly shown) [EM-1273-CS] | – | – | AUC(0-t) ([1]; rat, plasma, po, 0.5 mg/rat): 85 ± 26 ng·h/mL; Reversibility ((%) of control) [2]: 40%
CC1(C)CCC2(CCC3C4CCc5c(cc(Cl)c(O)c5Cl)C4CCC32C)OC1=O (stereo not shown) [EM-1391-CS] | 28 ± 3.4 ng·h/mL | 49 % of control | –
C[C@]12CCC3c4ccc(O)cc4CCC3C1CC[C@@]21CCCC(=O)O1 (stereo partly drawn) [EM-919, 1,3,5(10)-estratrien-3-ol-17(R)-spiro-2′(6′-oxo)tetrahydropyran] | 4.8 ± 0.8 ng·h/mL | – | –
CC1(C)CCC2(CCC3C4CCc5c(cc(Cl)c(OS(C)(=O)=O)c5Cl)C4CCC32C)OC1=O (stereo not shown) [EM-1392-CS] | 305 ± 49 ng·h/mL | 38 % of control | –
CC1(C)CC[C@@]2(CCC3C4CCc5cc(F)ccc5C4CC[C@@]32C)OC1=O (stereo partly shown) [EM-1157-CS] | 40 ± 7 ng·h/mL | 28 % of control | –
CCCCN(C)C(=O)[C@@]1(OC(C)=O)CCC2C3C=C(C)C4=CC(=O)CC[C@]4(C)C3CC[C@@]21C (stereo partly shown) [EM-1165] | – | – | AUC(0-t) ([1]; rat, plasma, po, 0.5 mg): 24 ± 3.6 ng·h/mL
CC(=O)[C@@]1(OC(=O)CCCCF)CCC2C3C=C(C)C4=CC(=O)CC[C@]4(C)C3CC[C@@]21C (stereo partly shown) [EM-1195-CS] | – | – | AUC(0-t) ([1]; rat, plasma, po, 0.5 mg): 31 ± 5.5 ng·h/mL
COCCOc1cc2c(cc1Cl)C1CCC3(C)C(CCC34CCC(C)(C)C(=O)O4)C1CC2 (stereo not shown) [EM-1371-CS] | 64 ± 21 ng·h/mL | 40 % of control | –
CC1(C)CCC2(CCC3C4CCc5ccccc5C4CCC32C)OC1=O (stereo not shown) [CS-224] | 18 ± 3.5 ng·h/mL | – | –
CCCC(=O)OC1(C(C)=O)CCC2C3C=C(C)C4=CC(=O)CC(C)C4(C)C3CCC21C (stereo not shown) [CS-245] | – | – | AUC(0-t) ([1]; rat, plasma, po, 0.5 mg): 18 ± 5 ng·h/mL
